In US10934310B2, “Inhibitors of Bruton's tyrosine kinase and method of their use” (JANSSEN PHARMACEUTICA NV, priority 2015, dated 2021):

biological target: unphosphorylated-BTK kinase domain (UP-BTK), GST-tagged human BTK (389-659aa) (Homo sapiens (Human), UniProt Q06187); assay: BTK Kinase Lanthascreen Binding Assay; settings: Lanthascreen binding, 60 minutes incubation; pIC50 = negative log of the IC50 in molar
Description: BTK Kinase Lanthascreen Binding Assay:
A BTK kinase lanthascreen binding assay monitors compound binding to unphosphorylated-BTK kinase domain (UP-BTK), by competing with a fluorescent labeled tracer. […] Data were analyzed using Xlfit™ version 5.3 from ID Business Solutions (Guildford), Microsoft Excel add-in. pIC50 refers to the negative log of the IC50 in molar.

unphosphorylated-BTK kinase domain (UP-BTK), GST-tagged human BTK (389-659aa), sequence (Q06187 389-659): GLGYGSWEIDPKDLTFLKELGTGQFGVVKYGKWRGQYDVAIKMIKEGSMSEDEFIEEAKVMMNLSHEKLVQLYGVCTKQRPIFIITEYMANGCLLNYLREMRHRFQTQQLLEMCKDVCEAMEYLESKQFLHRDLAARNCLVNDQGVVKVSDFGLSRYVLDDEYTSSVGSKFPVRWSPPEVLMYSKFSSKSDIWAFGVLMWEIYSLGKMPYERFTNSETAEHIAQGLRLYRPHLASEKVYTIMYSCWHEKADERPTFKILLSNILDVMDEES

Row | Structure (SMILES) | BTK_I_binding pIC50
1 | CC(=O)N[C@@H]1CCCC[C@@H]1NC(=O)c1sc2nccc3c2c1NC(=O)N3c1ccc(Oc2ccccc2)cc1C (single isomer, unassigned) [Example 446, N-((1S,2R)-2-Acetamidocyclohexyl)-5-(*S)-(2-methyl-4-phenoxyphenyl)-4-oxo-4,5-dihydro-3H-1-thia-3,5,8-triazaacenaphthylene-2-carboxamide] | 6.72
2 | Cc1cc(Oc2ccccc2)ccc1N1C(=O)Nc2c(C(=O)N[C@@H]3CCCC[C@H]3NC(=O)CN(C)C)sc3nccc1c23 (single isomer, unassigned) [Example 447, N-((1R,2R)-2-(2-(Dimethylamino)acetamido)cyclohexyl)-5-(*S)-(2-methyl-4-phenoxyphenyl)-4-oxo-4,5-dihydro-3H-1-thia-3,5,8-triazaacenaphthylene-2-carboxamide] | 6.67
3 | Cc1cc(Oc2ccccc2)ccc1N1C(=O)Nc2c(C(=O)N[C@H]3CCCC[C@H]3NC(=O)CN(C)C)sc3nccc1c23 (single isomer, unassigned) [Example 449, N-((1S,2R)-2-(2-(Dimethylamino)acetamido)cyclohexyl)-5-(*S)-(2-methyl-4-phenoxyphenyl)-4-oxo-4,5-dihydro-3H-1-thia-3,5,8-triazaacenaphthylene-2-carboxamide] | 6.51
4 | Cc1cc(Oc2ccccc2)ccc1N1C(=O)Nc2c(C(=O)N[C@H]3CCC[C@H]3N)sc3nccc1c23 (single isomer, unassigned) [Example 452, N-((1S,2R)-2-Aminocyclopentyl)-5-(*S)-(2-methyl-4-phenoxyphenyl)-4-oxo-4,5-dihydro-3H-1-thia-3,5,8-triazaacenaphthylene-2-carboxamide] | 6.38

The next lines start with the values.

Row | BTK_I_binding pIC50 | Structure (SMILES)
5 | 6.73 | CC(=O)N[C@@H]1CCCC[C@H]1NC(=O)c1sc2nccc3c2c1NC(=O)N3c1ccc(Oc2ccccc2)cc1C (single isomer, unassigned) [Example 445, N-((1R,2R)-2-Acetamidocyclohexyl)-5-(*S)-(2-methyl-4-phenoxyphenyl)-4-oxo-4,5-dihydro-3H-1-thia-3,5,8-triazaacenaphthylene-2-carboxamide]
6 | 6.66 | CNCC(=O)N[C@@H]1CCCC[C@H]1NC(=O)c1sc2nccc3c2c1NC(=O)N3c1ccc(Oc2ccccc2)cc1C (single isomer, unassigned) [Example 448, 5-(*S)-(2-Methyl-4-phenoxyphenyl)-N-((1R,2R)-2-(2-(methylamino)acetamido)cyclohexyl)-4-oxo-4,5-dihydro-3H-1-thia-3,5,8-triazaacenaphthylene-2-carboxamide]
7 | 6.47 | Cc1cc(Oc2ccccc2)ccc1N1C(=O)Nc2c(C(=O)N[C@H]3CCCC[C@H]3N)sc3nccc1c23 (single isomer, unassigned) [Example 450, N-((1S,2R)-2-Aminocyclohexyl)-5-(*S)-(2-methyl-4-phenoxyphenyl)-4-oxo-4,5-dihydro-3H-1-thia-3,5,8-triazaacenaphthylene-2-carboxamide]
8 | 6.40 | C=CC(=O)N[C@@H]1CCCC[C@@H]1NC(=O)c1sc2nccc3c2c1NC(=O)N3c1ccc(Oc2ccccc2)cc1C (single isomer, unassigned) [Example 451]
9 | 7.63 | Cc1cc(CC(C)C)ncc1N1C(=O)Nc2c(C(=O)N[C@@H]3CCC[C@@H]3NC(=O)/C(C#N)=C/C3CC3)sc3nccc1c23 (single isomer, unassigned) [Example 466, N-((1R,2S)-2-((E)-2-Cyano-3-cyclopropylacrylamido)cyclopentyl)-5-(*S)-(6-isobutyl-4-methylpyridin-3-yl)-4-oxo-4,5-dihydro-3H-1-thia-3,5,8-triazaacenaphthylene-2-carboxamide]

same assay, conditions: compound, 50 nM Tracer 236, 2 nM anti-GST antibody, 60 minutes; pIC50 = negative log of the IC50 in molar

Row | Structure (SMILES) | BTK_I_binding pIC50
10 | Cc1cc(Oc2ccccc2)ccc1N1C(=O)Nc2c(C(=O)N[C@@H]3CCCC[C@@H]3N)sc3nccc1c23 [Example 10, N-((1R,2S)-2-Aminocyclohexyl)-5-(2-methyl-4-phenoxyphenyl)-4-oxo-4,5-dihydro-3H-1-thia-3,5,8-triazaacenaphthylene-2-carboxamide] | 7.35
11 | CC(=O)N[C@@H]1CCC[C@H]1NC(=O)c1sc2nccc3c2c1NC(=O)N3c1ccc(Oc2ccccc2)cc1C [Example 11, N-((1R,2R)-2-Acetamidocyclopentyl)-5-(2-methyl-4-phenoxyphenyl)-4-oxo-4,5-dihydro-3H-1-thia-3,5,8-triazaacenaphthylene-2-carboxamide] | 7.24
12 | Cc1cc(Oc2ccccc2)ccc1N1C(=O)Nc2c(C(=O)N[C@H]3CC[C@H](O)CC3)sc3nccc1c23 [Example 15, N-((1R,4R)-4-Hydroxycyclohexyl)-5-(2-methyl-4-phenoxyphenyl)-4-oxo-4,5-dihydro-3H-1-thia-3,5,8-triazaacenaphthylene-2-carboxamide] | 7.21
13 | Cc1cc(Oc2ccccc2)ccc1N1C(=O)Nc2c(C(=O)N[C@H]3CC[C@@H](O)CC3)sc3nccc1c23 [Example 16, N-((1S,4S)-4-Hydroxycyclohexyl)-5-(2-methyl-4-phenoxyphenyl)-4-oxo-4,5-dihydro-3H-1-thia-3,5,8-triazaacenaphthylene-2-carboxamide] | 7.14
14 | CO[C@H]1CC[C@H](NC(=O)c2sc3nccc4c3c2NC(=O)N4c2ccc(Oc3ccccc3)cc2C)CC1 [Example 18, N-((1R,4R)-4-Methoxycyclohexyl)-5-(2-methyl-4-phenoxyphenyl)-4-oxo-4,5-dihydro-3H-1-thia-3,5,8-triazaacenaphthylene-2-carboxamide] | 6.99
15 | Cc1cc(Oc2ccccc2)ccc1N1C(=O)Nc2c(C(=O)N[C@H]3CC[C@@H](NC(=O)/C(C#N)=C/C4CC4)CC3)sc3nccc1c23 [Example 19, N-((1S,4S)-4-((E)-2-Cyano-3-cyclopropylacrylamido)cyclohexyl)-5-(2-methyl-4-phenoxyphenyl)-4-oxo-4,5-dihydro-3H-1-thia-3,5,8-triazaacenaphthylene-2-carboxamide] | 6.63

The next lines start with the values.

Row | BTK_I_binding pIC50 | Structure (SMILES)
16 | 7.36 | C=CC(=O)NC1CCC[C@@H](NC(=O)c2sc3nccc4c3c2NC(=O)N4c2ccc(Oc3ccccc3)cc2C)C1 (stereo in doubt) [Example 2, N-((1R,3S)-3-Acrylamidocyclohexyl)-5-(2-methyl-4-phenoxyphenyl)-4-oxo-4,5-dihydro-3H-1-thia-3,5,8-triazaacenaphthylene-2-carboxamide]
17 | 7.48 | C=CC(=O)NC1CCC[C@H]1NC(=O)c1sc2nccc3c2c1NC(=O)N3c1ccnc(-c2ccccc2)c1 (stereo in doubt) [Example 197, N-((1R,2R)-2-Acrylamidocyclopentyl)-4-oxo-5-(2-phenylpyridin-4-yl)-4,5-dihydro-3H-1-thia-3,5,8-triazaacenaphthylene-2-carboxamide]
18 | 7.42 | C=CC(=O)N[C@H]1CC[C@@H](NC(=O)c2sc3nccc4c3c2NC(=O)N4c2ccc(Oc3ccccc3)cc2C)CC1 [Example 3, N-((1S,4S)-4-Acrylamidocyclohexyl)-5-(2-methyl-4-phenoxyphenyl)-4-oxo-4,5-dihydro-3H-1-thia-3,5,8-triazaacenaphthylene-2-carboxamide]
19 | 7.48 | Cc1cc(Oc2ccccc2)ccc1N1C(=O)Nc2c(C(=O)N[C@@H]3CCC[C@@H]3O)sc3nccc1c23 [Example 6, N-((1R,2S)-2-Hydroxycyclopentyl)-5-(2-methyl-4-phenoxyphenyl)-4-oxo-4,5-dihydro-3H-1-thia-3,5,8-triazaacenaphthylene-2-carboxamide]
20 | 7.41 | Cc1cc(Oc2ccccc2)ccc1N1C(=O)Nc2c(C(=O)N[C@@H]3CCC[C@H]3O)sc3nccc1c23 [Example 9, N-((1R,2R)-2-Hydroxycyclopentyl)-5-(2-methyl-4-phenoxyphenyl)-4-oxo-4,5-dihydro-3H-1-thia-3,5,8-triazaacenaphthylene-2-carboxamide]
21 | 7.03 | Cc1cc(Oc2ccccc2)ccc1N1C(=O)Nc2c(C(=O)N[C@@H]3CCC[C@@H]3N)sc3nccc1c23 [Example 12, N-((1R,2S)-2-Aminocyclopentyl)-5-(2-methyl-4-phenoxyphenyl)-4-oxo-4,5-dihydro-3H-1-thia-3,5,8-triazaacenaphthylene-2-carboxamide]
22 | 6.94 | C=CC(=O)N[C@H]1CC[C@H](NC(=O)c2sc3nccc4c3c2NC(=O)N4c2ccc(Oc3ccccc3)cc2C)CC1 [Example 13, N-((1R,4R)-4-Acrylamidocyclohexyl)-5-(2-methyl-4-phenoxyphenyl)-4-oxo-4,5-dihydro-3H-1-thia-3,5,8-triazaacenaphthylene-2-carboxamide]
23 | 7.02 | Cc1cc(Oc2ccccc2)ccc1N1C(=O)Nc2c(C(=O)N[C@H]3CCC[C@@H]3O)sc3nccc1c23 [Example 20, N-((1S,2S)-2-Hydroxycyclopentyl)-5-(2-methyl-4-phenoxyphenyl)-4-oxo-4,5-dihydro-3H-1-thia-3,5,8-triazaacenaphthylene-2-carboxamide]
24 | 6.85 | CN[C@@H]1CCC[C@H]1NC(=O)c1sc2nccc3c2c1NC(=O)N3c1ccc(Oc2ccccc2)cc1C [Example 21, 5-(2-Methyl-4-phenoxyphenyl)-N-((1R,2R)-2-(methylamino)cyclopentyl)-4-oxo-4,5-dihydro-3H-1-thia-3,5,8-triazaacenaphthylene-2-carboxamide]

same assay, conditions: read-out: BTK_I_binding pIC50 (converted)

Row | IC50 | Structure (SMILES)
25 | 229 nM | Cc1cc(CC(C)C)ncc1N1C(=O)Nc2c(C(=O)N[C@@H]3CCC[C@@H]3NC(=O)/C=C/CNC(=O)CCCC(=O)NCCCOCCOCCOCCCNC(=O)CCCC[C@@H]3SC[C@@H]4NC(=O)N[C@@H]43)sc3nccc1c23 (single isomer, unassigned) [Example 464]
26 | 120 nM | Cc1cc(Oc2ccccc2)ccc1N1C(=O)Nc2c(C(=O)N[C@@H]3CCC[C@@H]3N(C)C)sc3nccc1c23 [Example 17, N-((1R,2S)-2-(Dimethylamino)cyclopentyl)-5-(2-methyl-4-phenoxyphenyl)-4-oxo-4,5-dihydro-3H-1-thia-3,5,8-triazaacenaphthylene-2-carboxamide]
